Key:
Format in all cases: biochemical
[1] = molecular target: T1, cathepsin K (Homo sapiens, UniProt P43235); test: Inhibitory activity assay against cathepsin K (enzyme assay); settings: Z-Phe-Arg-AMC 10 μM, enzyme 1 nM, pH 5.5, 30 minutes
T1 sequence (P43235 115-329): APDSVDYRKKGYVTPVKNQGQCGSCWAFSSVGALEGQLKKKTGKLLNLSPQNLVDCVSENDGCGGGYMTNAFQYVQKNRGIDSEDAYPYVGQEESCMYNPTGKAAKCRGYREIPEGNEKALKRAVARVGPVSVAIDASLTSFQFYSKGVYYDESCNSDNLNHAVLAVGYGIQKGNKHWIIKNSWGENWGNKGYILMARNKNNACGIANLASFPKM
In short: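 IC50 by 4-parameter logistic fit of fluorescence (ex 355 nm, em 460 nm) after 30 min reaction. Compound tested at 10 final concentrations from 10.0 μM down to 0.000508 μM against 1 nM enzyme and 10 μM Z-Phe-Arg-AMC, in MES buffer pH 5.5 with DTT, EDTA, Triton X-100 and 10% DMSO.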

[2] = molecular target: cathepsin B (Homo sapiens, UniProt P07858); test: Inhibitory activity assay against cathepsin B (enzyme assay); settings: Z-Arg-Arg-AMC 40 μM, enzyme 1 nM, pH 6.0, 90 minutes
Description: In order to measure the enzyme activity of cathepsin B, a buffer solution (pH 6.0) consisting of 50 mM MES, 5 mM DTT, 2.5 mM EDTA, 0.005% Polysorbate 20, and 10% DMSO was prepared. The substrate, the test material, and the enzyme were mixed in the buffer solution in a predetermined concentration. The Z-Arg-Arg-AMC substrate was used in the final concentration of 40 μM. The test material was used in the final concentrations of 10.0 μM, 3.33 μM, 1.11 μM, 0.370 μM, 0.123 μM, 0.0412 μM, 0.0137 μM, 0.00457 μM, 0.00152 μM, and 0.000508 μM, respectively. The cathepsin B enzyme was used in the final concentration of 1 nM. The final volume of the enzyme reaction solution was 10 μL. After reacting the mixture of substrate, test material, and enzyme for 90 minutes, the enzyme activity was measured with the EnVision (Perkin Elmer) microplate reader at an absorption wavelength of 340 nm and an emission wavelength of 460 nm. IC50 values were determined using 4-parameter logistic curve fit program of GraphPad Prism.

[3] = molecular target: cathepsin L (Homo sapiens, UniProt P07711); test: Inhibitory activity assay against cathepsin L (enzyme assay); settings: Z-Phe-Arg-AMC 2 μM, enzyme 3 nM, pH 5.5, 30 minutes
Description: In order to measure the enzyme activity of cathepsin L, a buffer solution (pH 5.5) consisting of 50 mM MES, 2.5 mM DTT, 2.5 mM EDTA, 0.005% Polysorbate 20, and 10% DMSO was prepared. The substrate, the test material, and the enzyme were mixed in the buffer solution in a predetermined concentration. The Z-Phe-Arg-AMC substrate was used in the final concentration of 2 μM. The test material was used in the final concentrations of 10.0 μM, 3.33 μM, 1.11 μM, 0.370 μM, 0.123 μM, 0.0412 μM, 0.0137 μM, 0.00457 μM, 0.00152 μM, and 0.000508 μM, respectively. The cathepsin L enzyme was used in the final concentration of 3 nM. The final volume of the enzyme reaction solution was 10 μL. After reacting the mixture of substrate, test material, and enzyme for 30 minutes, the enzyme activity was measured with the EnVision (Perkin Elmer) microplate reader at an absorption wavelength of 340 nm and an emission wavelength of 460 nm. IC50 values were determined using 4-parameter logistic curve fit program of GraphPad Prism.

[4] = molecular target: cathepsin S (Homo sapiens, UniProt P25774); test: Inhibitory activity assay against cathepsin S (enzyme assay); settings: Z-Phe-Arg-AMC 70 μM, enzyme 3 nM, pH 6.5, 45 minutes
Description: In order to measure the enzyme activity of cathepsin S, a buffer solution (pH 6.5) consisting of 50 mM MES, 2.5 mM DTT, 1.0 mM EDTA, 0.001% bovine serum albumin (BSA), and 10% DMSO was prepared. The substrate, the test material, and the enzyme were mixed in the buffer solution in a predetermined concentration. The Z-Phe-Arg-AMC substrate was used in the final concentration of 70 μM. The test material was used in the final concentrations of 10.0 μM, 3.33 μM, 1.11 μM, 0.370 μM, 0.123 μM, 0.0412 μM, 0.0137 μM, 0.00457 μM, 0.00152 μM, and 0.000508 μM, respectively. The cathepsin S enzyme was used in the final concentration of 3 nM. The final volume of the enzyme reaction solution was 10 μL.
After reacting the mixture of substrate, test material, and enzyme for 45 minutes, the enzyme activity was measured with the EnVision (Perkin Elmer) microplate reader at an absorption wavelength of 340 nm and an emission wavelength of 460 nm. IC50 values were determined using 4-parameter logistic curve fit program of GraphPad Prism.

Sequence of cathepsin L (P07711 114-333, species assumed): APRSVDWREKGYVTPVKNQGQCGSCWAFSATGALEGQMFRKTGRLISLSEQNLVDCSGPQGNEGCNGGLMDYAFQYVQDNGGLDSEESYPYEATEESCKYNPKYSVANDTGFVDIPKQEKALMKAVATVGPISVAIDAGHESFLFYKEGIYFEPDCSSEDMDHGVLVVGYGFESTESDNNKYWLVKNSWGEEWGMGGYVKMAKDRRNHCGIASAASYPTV
Sequence of cathepsin S (P25774 115-331, species assumed): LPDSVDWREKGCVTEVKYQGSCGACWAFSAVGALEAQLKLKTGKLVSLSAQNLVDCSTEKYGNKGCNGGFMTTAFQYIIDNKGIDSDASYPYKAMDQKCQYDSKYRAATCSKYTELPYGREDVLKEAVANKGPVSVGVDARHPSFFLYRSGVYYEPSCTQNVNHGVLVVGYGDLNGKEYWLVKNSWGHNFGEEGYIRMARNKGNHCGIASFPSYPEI

SMILES	IC50 [1]	IC50 [2]	IC50 [3]	IC50 [4]
Cc1ccc(CNC(=O)NC2(c3ccnc(C#N)n3)CCCC2)cc1 [Example 48, 1-(1-(2-cyanopyrimidin-4-yl)cyclopentyl)-3-(4-methylbenzyl)urea]	49.6 nM	> 10000 nM	> 10000 nM	> 10000 nM
N#Cc1nccc(C2(NC(=O)NCc3ccc(F)cc3)CCCC2)n1 [Example 54, 1-(1-(2-cyanopyrimidin-4-yl)cyclopentyl)-3-(4-fluorobenzyl)urea]	76 nM	> 10000 nM	> 10000 nM	> 10000 nM
N#Cc1nccc(C2(NC(=O)NCc3ccccc3C(F)(F)F)CCCC2)n1 [Example 56, 1-(1-(2-cyanopyrimidin-4-yl)cyclopentyl)-3-(2-(trifluoromethyl)benzyl)urea]	101 nM	> 10000 nM	> 10000 nM	> 10000 nM
Cc1ccc(NC(=O)NC2(c3ccnc(C#N)n3)CCCC2)cc1C [Example 62, 1-(1-(2-cyanopyrimidin-4-yl)cyclopentyl)-3-(3,4-dimethylphenyl)urea]	83.7 nM	> 10000 nM	> 10000 nM	> 10000 nM
Cc1cc(C)cc(NC(=O)NC2(c3ccnc(C#N)n3)CCCC2)c1 [Example 63, 1-(1-(2-cyanopyrimidin-4-yl)cyclopentyl)-3-(3,5-dimethylphenyl)urea]	64.3 nM	> 10000 nM	> 10000 nM	> 10000 nM
Cc1cccc(NC(=O)NC2(c3ccnc(C#N)n3)CCCC2)c1C [Example 64, 1-(1-(2-cyanopyrimidin-4-yl)cyclopentyl)-3-(2,3-dimethylphenyl)urea]	75.9 nM	5890 nM	5510 nM	> 10000 nM
N#Cc1nccc(C2(NC(=O)Nc3cc(F)ccc3C(F)(F)F)CCCC2)n1 [Example 67, 1-(1-(2-cyanopyrimidin-4-yl)cyclopentyl)-3-(5-fluoro-2-(trifluoromethyl)phenyl)urea]	64.6 nM	> 10000 nM	> 10000 nM	> 10000 nM

Molecules with a lower IC50 [1], results first:

IC50 [1]	IC50 [2]	IC50 [3]	IC50 [4]	SMILES
46.6 nM	> 10000 nM	> 10000 nM	> 10000 nM	N#Cc1nccc(C2(NC(=O)Nc3cc(F)ccc3F)CCCC2)n1 [Example 65, 1-(1-(2-cyanopyrimidin-4-yl)cyclopentyl)-3-(2,5-difluorophenyl)urea]
38.8 nM	> 10000 nM	4170 nM	> 10000 nM	CC(NC(=O)NC1(c2ccnc(C#N)n2)CCCC1)c1ccccc1 (centres unmarked) [Example 51, 1-(1-(2-cyanopyrimidin-4-yl)cyclopentyl)-3-(1-phenylethyl)urea]
21.6 nM	8780 nM	> 10000 nM	> 10000 nM	N#Cc1nccc(C2(NC(=O)Nc3cccc(C(F)(F)F)c3)CCCC2)n1 [Example 60, 1-(1-(2-cyanopyrimidin-4-yl)cyclopentyl)-3-(3-(trifluoromethyl)phenyl)urea]
19.5 nM	5660 nM	> 10000 nM	> 10000 nM	N#Cc1nccc(C2(NC(=O)NCc3cccc4ccccc34)CCCC2)n1 [Example 55, 1-(1-(2-cyanopyrimidin-4-yl)cyclopentyl)-3-(naphthalen-1-ylmethyl)urea]
13.2 nM	> 10000 nM	5970 nM	> 10000 nM	Cc1ccccc1CNC(=O)NC1(c2ccnc(C#N)n2)CCCC1 [Example 46, 1-(1-(2-cyanopyrimidin-4-yl)cyclopentyl)-3-(2-methylbenzyl)urea]
4.3 nM	> 10000 nM	2670 nM	> 10000 nM	Cc1ccc(C)c(NC(=O)NC2(c3ccnc(C#N)n3)CCCC2)c1 [Example 50, 1-(1-(2-cyanopyrimidin-4-yl)cyclopentyl)-3-(2,5-dimethylphenyl)urea]
3.4 nM	> 10000 nM	> 10000 nM	> 10000 nM	Cc1ccc(C(F)(F)F)cc1NC(=O)NC1(c2ccnc(C#N)n2)CCCC1 [Example 66, 1-(1-(2-cyanopyrimidin-4-yl)cyclopentyl)-3-(2-methyl-5-(trifluoromethyl)phenyl)urea]

Source: patent US11299478B2, “2-cyanopyrimidin-4-yl carbamate or urea derivative or salt thereof, and pharmaceutical composition including same” (HANLIM PHARMACEUTICAL CO., LTD., priority 2018, dated 2022)
